Assay results published in article PMC3961306, “Comparison of the Cancer Gene Targeting and Biochemical Selectivities of All Targeted Kinase Inhibitors Approved for Clinical Use” (PLoS ONE, 2014).
Read-outs that look alike come from different tables or passages of the source.

Tests used:
Assay in all cases: Kinase profiling in a biochemical assay panel (mobility shift assays and ELISA), %-inhibition at 1 μM; selectivity entropy
[1] = target: panel of more than 300 wild-type and mutant kinases (313 kinase panel) (Homo sapiens, UniProt O95819)
[2] = target: panel of more than 300 wild-type and mutant kinases (313 kinase panel) (Homo sapiens, UniProt P04626)
[3] = target: panel of more than 300 wild-type and mutant kinases (313 kinase panel) (Homo sapiens, UniProt P05771); conditions: kinase PKCβ1; 1 μM
[4] = target: panel of more than 300 wild-type and mutant kinases (313 kinase panel) (Homo sapiens, UniProt P16591); conditions: kinase FER; compound at 1 μM
[5] = target: panel of more than 300 wild-type and mutant kinases (313 kinase panel) (Homo sapiens, UniProt P30291)
[6] = target: panel of more than 300 wild-type and mutant kinases (313 kinase panel) (Homo sapiens, UniProt P45983); conditions: kinase JNK1; compound at 1 μM
[7] = target: panel of more than 300 wild-type and mutant kinases (313 kinase panel) (Homo sapiens, UniProt Q00535); conditions: kinase CDK5/p25; 1 μM compound
[8] = target: panel of more than 300 wild-type and mutant kinases (313 kinase panel) (Homo sapiens, UniProt Q13627)
[9] = target: panel of more than 300 wild-type and mutant kinases (313 kinase panel) (Homo sapiens, UniProt Q16539)
[10] = target: panel of more than 300 wild-type and mutant kinases (313 kinase panel) (Homo sapiens, UniProt Q16654); conditions: kinase PDHK4; 1 μM
[11] = target: panel of more than 300 wild-type and mutant kinases (313 kinase panel) (Homo sapiens, UniProt Q86V86)
[12] = target: panel of more than 300 wild-type and mutant kinases (313 kinase panel) (Homo sapiens, UniProt Q8IU85); conditions: kinase CaMK1δ; 1 μM compound
[13] = target: T1, panel of more than 300 wild-type and mutant kinases (313 kinase panel) (Homo sapiens, UniProt Q96KB5); conditions: kinase PBK; 1 μM
T1 sequence (Q96KB5 1-322): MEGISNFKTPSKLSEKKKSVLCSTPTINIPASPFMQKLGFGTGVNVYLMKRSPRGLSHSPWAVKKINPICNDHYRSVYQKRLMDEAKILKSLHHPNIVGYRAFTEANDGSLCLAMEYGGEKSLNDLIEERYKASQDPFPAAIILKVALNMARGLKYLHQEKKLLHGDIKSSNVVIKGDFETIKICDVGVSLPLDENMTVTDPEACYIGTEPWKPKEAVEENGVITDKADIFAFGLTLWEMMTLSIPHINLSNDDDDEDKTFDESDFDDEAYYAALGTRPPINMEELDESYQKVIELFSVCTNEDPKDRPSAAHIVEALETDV

[14] = target: T2, panel of more than 300 wild-type and mutant kinases (313 kinase panel) (Homo sapiens, UniProt Q96PF2); conditions: kinase TSSK2; 1 μM
T2 sequence (Q96PF2 1-358): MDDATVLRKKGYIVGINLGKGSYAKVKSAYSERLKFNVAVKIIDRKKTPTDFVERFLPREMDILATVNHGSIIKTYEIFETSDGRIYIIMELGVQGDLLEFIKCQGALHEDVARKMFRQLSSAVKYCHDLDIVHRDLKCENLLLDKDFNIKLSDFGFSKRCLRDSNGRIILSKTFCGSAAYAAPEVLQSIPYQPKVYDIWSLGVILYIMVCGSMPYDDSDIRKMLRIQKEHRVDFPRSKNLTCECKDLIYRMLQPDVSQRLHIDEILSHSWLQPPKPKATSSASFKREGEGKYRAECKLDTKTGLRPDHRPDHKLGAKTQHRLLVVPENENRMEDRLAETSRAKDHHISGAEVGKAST

[15] = target: T3, panel of more than 300 wild-type and mutant kinases (313 kinase panel) (Homo sapiens, UniProt Q9BXA7); conditions: kinase TSSK1; 1 μM
T3 sequence (Q9BXA7 1-367): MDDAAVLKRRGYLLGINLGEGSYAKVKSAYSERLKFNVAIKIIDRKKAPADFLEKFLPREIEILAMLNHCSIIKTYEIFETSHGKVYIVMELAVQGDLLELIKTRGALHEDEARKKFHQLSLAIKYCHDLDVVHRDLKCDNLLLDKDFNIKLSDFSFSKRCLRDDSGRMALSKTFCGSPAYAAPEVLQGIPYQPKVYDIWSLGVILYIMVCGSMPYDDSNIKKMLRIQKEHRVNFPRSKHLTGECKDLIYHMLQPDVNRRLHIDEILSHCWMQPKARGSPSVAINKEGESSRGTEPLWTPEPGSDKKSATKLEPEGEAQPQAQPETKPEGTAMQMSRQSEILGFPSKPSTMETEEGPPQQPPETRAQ

Sequence of panel of more than 300 wild-type and mutant kinases (313 kinase panel) (Homo sapiens, UniProt Q00535) (Q00535 whole entry, change not shown): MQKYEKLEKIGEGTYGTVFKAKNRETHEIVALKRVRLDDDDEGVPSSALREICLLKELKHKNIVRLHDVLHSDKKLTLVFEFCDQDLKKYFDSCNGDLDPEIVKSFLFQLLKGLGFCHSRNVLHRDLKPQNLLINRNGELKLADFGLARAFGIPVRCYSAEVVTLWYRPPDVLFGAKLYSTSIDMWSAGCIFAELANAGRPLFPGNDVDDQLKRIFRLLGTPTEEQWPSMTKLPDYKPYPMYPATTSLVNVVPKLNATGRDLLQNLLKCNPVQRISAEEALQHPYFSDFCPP
Sequence of panel of more than 300 wild-type and mutant kinases (313 kinase panel) (Homo sapiens, UniProt Q16539) (Q16539 whole entry, change not shown): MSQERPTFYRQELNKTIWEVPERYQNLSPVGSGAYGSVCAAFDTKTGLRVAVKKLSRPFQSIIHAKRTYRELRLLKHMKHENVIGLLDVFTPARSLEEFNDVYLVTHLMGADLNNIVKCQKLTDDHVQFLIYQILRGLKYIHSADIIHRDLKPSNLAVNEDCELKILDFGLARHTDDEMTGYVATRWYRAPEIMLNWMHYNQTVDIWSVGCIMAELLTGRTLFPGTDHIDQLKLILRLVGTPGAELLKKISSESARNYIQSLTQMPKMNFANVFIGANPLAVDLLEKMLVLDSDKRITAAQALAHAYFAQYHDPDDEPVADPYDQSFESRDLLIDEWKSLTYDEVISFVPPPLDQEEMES
Sequence of panel of more than 300 wild-type and mutant kinases (313 kinase panel) (Homo sapiens, UniProt P16591) (P16591 whole entry, change not shown): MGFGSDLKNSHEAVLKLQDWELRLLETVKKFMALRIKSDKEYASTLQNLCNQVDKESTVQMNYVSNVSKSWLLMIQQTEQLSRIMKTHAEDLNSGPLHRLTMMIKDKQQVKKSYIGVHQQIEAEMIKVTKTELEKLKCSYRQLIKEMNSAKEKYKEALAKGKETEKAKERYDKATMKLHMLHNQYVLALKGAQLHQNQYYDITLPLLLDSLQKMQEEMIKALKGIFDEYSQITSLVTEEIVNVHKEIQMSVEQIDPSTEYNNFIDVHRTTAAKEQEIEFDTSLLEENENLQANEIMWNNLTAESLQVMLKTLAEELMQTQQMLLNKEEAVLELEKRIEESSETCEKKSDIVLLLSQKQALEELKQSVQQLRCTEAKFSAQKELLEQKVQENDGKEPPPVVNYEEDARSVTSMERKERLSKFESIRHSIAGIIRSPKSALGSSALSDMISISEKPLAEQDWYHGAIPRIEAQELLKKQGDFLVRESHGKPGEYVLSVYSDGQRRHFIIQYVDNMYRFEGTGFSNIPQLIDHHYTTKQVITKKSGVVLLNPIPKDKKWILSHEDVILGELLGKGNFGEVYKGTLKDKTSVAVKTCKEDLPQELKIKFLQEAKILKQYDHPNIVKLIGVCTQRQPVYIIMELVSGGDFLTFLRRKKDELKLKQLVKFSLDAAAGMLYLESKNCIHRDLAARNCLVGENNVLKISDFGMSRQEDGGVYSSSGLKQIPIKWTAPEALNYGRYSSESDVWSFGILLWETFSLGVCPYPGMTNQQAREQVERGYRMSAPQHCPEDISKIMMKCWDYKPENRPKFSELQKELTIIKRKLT
Sequence of panel of more than 300 wild-type and mutant kinases (313 kinase panel) (Homo sapiens, UniProt P04626) (P04626 23-1255, change not shown): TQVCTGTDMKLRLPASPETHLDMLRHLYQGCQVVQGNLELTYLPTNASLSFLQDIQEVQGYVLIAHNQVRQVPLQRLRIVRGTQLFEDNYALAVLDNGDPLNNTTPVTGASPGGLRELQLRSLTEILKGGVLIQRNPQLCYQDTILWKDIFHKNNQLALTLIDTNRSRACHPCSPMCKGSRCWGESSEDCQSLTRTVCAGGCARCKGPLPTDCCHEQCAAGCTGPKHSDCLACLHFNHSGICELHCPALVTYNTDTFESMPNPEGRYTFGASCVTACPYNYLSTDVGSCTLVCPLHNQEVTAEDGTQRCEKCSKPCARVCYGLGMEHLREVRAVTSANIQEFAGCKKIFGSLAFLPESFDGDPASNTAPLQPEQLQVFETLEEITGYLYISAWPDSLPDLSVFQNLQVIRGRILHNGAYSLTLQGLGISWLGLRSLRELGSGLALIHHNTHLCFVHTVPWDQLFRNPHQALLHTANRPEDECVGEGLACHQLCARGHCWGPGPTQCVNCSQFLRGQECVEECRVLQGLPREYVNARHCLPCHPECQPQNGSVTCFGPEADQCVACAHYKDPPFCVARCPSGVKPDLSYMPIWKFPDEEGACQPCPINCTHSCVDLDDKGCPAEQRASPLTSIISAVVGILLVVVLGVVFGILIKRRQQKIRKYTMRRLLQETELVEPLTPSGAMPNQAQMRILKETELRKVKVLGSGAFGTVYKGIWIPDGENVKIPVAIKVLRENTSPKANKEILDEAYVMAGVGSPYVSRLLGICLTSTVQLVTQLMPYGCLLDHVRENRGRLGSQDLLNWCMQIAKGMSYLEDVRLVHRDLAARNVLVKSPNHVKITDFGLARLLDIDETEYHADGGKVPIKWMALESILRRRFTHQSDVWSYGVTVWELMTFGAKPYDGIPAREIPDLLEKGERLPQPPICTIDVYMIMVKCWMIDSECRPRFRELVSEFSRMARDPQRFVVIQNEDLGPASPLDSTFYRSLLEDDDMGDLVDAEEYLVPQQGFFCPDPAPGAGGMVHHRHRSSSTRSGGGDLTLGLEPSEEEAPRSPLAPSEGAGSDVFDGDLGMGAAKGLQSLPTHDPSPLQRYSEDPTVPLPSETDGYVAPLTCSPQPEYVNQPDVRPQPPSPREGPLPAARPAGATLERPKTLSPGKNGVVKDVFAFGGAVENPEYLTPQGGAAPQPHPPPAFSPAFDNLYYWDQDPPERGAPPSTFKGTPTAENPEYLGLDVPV
Sequence of panel of more than 300 wild-type and mutant kinases (313 kinase panel) (Homo sapiens, UniProt P30291) (P30291 whole entry, change not shown): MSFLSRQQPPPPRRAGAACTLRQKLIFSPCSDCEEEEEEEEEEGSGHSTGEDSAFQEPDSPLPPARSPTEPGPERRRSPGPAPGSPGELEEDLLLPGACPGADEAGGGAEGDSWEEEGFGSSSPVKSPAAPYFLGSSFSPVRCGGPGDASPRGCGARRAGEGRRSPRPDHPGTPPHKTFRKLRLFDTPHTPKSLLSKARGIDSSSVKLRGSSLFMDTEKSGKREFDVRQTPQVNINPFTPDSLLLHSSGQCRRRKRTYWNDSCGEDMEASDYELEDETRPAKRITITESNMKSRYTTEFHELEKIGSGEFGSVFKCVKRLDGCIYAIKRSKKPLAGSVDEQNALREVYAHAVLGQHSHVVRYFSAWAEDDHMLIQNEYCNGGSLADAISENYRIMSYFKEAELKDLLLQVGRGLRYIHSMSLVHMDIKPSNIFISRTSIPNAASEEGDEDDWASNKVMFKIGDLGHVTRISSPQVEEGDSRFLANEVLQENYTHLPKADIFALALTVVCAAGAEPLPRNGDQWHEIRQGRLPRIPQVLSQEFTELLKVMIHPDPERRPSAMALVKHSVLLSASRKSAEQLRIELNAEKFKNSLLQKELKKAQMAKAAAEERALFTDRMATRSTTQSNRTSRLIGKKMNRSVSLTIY
Sequence of panel of more than 300 wild-type and mutant kinases (313 kinase panel) (Homo sapiens, UniProt P45983) (P45983 whole entry, change not shown): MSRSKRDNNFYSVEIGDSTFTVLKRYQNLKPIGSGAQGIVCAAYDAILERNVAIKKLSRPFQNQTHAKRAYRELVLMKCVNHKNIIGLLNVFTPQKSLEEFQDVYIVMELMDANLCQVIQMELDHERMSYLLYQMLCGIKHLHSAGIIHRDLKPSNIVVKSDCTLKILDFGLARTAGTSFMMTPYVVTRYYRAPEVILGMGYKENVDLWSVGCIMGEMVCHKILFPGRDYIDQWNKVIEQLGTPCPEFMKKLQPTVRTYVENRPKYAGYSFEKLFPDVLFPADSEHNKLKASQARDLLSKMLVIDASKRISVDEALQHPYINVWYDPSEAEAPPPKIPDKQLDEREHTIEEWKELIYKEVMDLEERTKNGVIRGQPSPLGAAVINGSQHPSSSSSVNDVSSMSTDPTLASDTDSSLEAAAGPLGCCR

Row | Compound | %-inhibition of HGK ([1]; 1 µM) [%] | %-inhibition of HER2 ([2]; 1 µM) [%] | %-inhibition of PKCβ1 [3] [%] | %-inhibition of FER [4] [%] | %-inhibition of WEE1 ([5]; kinase WEE1, compound at 1 μM) [%] | %-inhibition of JNK1 [6] [%] | %-inhibition, CDK5/p25 [7] [%] | %-inhibition of DYRK1A [8] [%] | %-inhibition of p38α ([9]; kinase p38α, 1 μM) [%] | %-inhibition of PDHK4 [10] [%] | %-inhibition of PIM3 ([11]; kinase PIM3, 1 μM) [%] | %-inhibition, CaMK1δ [12] [%] | %-inhibition of PBK [13] [%] | %-inhibition of TSSK2 [14] [%] | %-inhibition of TSSK1 [15] [%] | other results
1 | CS(=O)(=O)CCNCc1ccc(-c2ccc3ncnc(Nc4ccc(OCc5cccc(F)c5)c(Cl)c4)c3c2)o1 [lapatinib] | 1 | 85 | -6 | 3 | 8 | -6 | 0.201 | 3.25 | -3 | -4.31 | -3.44 | -4 | 6 | -7.54 | -3.21 | 
2 | Cc1cn(-c2cc(NC(=O)c3ccc(C)c(Nc4nccc(-c5cccnc5)n4)c3)cc(C(F)(F)F)c2)cn1 [nilotinib] | 4 | 4.25 | 3.41 | -19 |  | 36 | 0.83 | -6.52 |  | -4.31 |  | 3.56 | -8 | 2.58 | -2.32 | %-inhibition of WEE1 ([5]; 1 µM): 3.74%; %-inhibition of p38α ([9]; 1 µM): 92%; %-inhibition of PIM3 ([11]; 1 µM): 13%
3 | CC(=O)Nc1cccc(-n2c(=O)n(C3CC3)c(=O)c3c(Nc4ccc(I)cc4F)n(C)c(=O)c(C)c32)c1 [trametinib] |  |  | -3.47 | 4.28 | 9 | -4.68 | 19 |  | -4 | -1.65 | 8.44 | -3.3 | -3.79 | -1.73 | -5 | %-inhibition of HGK ([1]; kinase HGK, compound at 1 μM): -3.71%; %-inhibition of HER2 ([2]; kinase HER2, compound at 1 μM): -5.36%; %-inhibition of DYRK1A ([8]; kinase DYRK1A, compound at 1 μM): -1.23%
